Results reported in publication PMC9002265, “A New Series of Strigolactone Analogs Derived From Cinnamic Acids as Germination Inducers for Root Parasitic Plants” (Frontiers in Plant Science, 2022).

Test system: Arabidopsis max4 mutant
Test: Shoot branching assay, hydroponic culture
Format: in vivo
Conditions: 1 μM in hydroponic culture
Experimental: Sterilized seeds of the Arabidopsis max4-8 mutant were put on the rockwool which was soaked in Noren’s hydroponic solution ([Noren et al., 2004]) and cultured at 22°C for 14 days under LED light (105 μmol/m^2/s) with a 16 h light/8 h dark photoperiod. Seedlings were transferred to a plastic pot containing 800 ml of hydroponic culture and grown under the same conditions for additional 15 or 16 days. Test compounds were dissolved in acetone and added to hydroponic culture. The final concentration of test compounds was 1 or 5 μM and acetone was adjusted to 0.01% (v/v). The hydroponic culture was renewed after 7 days. The number of rosette branches (>5 mm) was counted. In the experience at 5 μM concentration, fresh weight of shoot was also measured to evaluate the side effects of tested compounds.

## CC1=CC(O/C=C2\CCOC2=O)OC1=O (stereo not shown) [GR5]
  shoot branching inhibition of max4: clearly inhibited shoot branching
